Laboratory results published in ChEMBL document CHEMBL1201862, “PubChem BioAssay data set” (2004).
Calls of active or inactive are those of the source.

Tests used:
[1] = target: T1, Oxysterols receptor LXR-beta (Homo sapiens, UniProt P55055); assay type: functional, cell-based;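 note: Cell-based luminescence dose-response assay of agonist activity at LXR, run as a confirmatory counterscreen to a daf-12 agonist screen; agonist potency from rising luciferase signal of a Gal4-LXR reporter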
T1 sequence (P55055 whole entry): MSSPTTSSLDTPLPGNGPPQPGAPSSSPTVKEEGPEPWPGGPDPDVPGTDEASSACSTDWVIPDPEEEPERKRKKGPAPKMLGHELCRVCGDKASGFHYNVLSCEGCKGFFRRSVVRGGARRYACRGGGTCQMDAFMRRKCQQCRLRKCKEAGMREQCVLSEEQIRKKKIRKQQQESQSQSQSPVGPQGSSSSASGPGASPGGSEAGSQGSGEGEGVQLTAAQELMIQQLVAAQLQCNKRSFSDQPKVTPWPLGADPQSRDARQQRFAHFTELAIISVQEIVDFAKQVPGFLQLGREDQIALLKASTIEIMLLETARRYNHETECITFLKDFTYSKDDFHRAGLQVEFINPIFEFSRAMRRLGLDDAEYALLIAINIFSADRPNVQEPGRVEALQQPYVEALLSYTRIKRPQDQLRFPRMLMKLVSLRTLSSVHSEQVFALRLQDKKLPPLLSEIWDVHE

[2] = cells
[3] = Luminescence-based cell-based high throughput dose response assay to identify activators of the DAF-12 from the parasite S. stercoralis (ssDAF-12).; assay type: functional
[4] = target: T1, Oxysterols receptor LXR-beta; test: LXR agonists, Gal4 luciferase reporter, dose response, counter-screen for ssDAF-12 agonist project, cell-based, luminescence, HEK293, S. stercoralis campaign (AID 720737); assay type: functional; settings: read-out: IC50 (the source's name)
[5] = target: Beta-galactosidase (Escherichia coli, UniProt Q8VNN2); test: Dose response counterscreen for EBI2 assay utilizing the enzyme, b-galactosidase.; assay type: functional
Beta-galactosidase, sequence (Q8VNN2 whole entry): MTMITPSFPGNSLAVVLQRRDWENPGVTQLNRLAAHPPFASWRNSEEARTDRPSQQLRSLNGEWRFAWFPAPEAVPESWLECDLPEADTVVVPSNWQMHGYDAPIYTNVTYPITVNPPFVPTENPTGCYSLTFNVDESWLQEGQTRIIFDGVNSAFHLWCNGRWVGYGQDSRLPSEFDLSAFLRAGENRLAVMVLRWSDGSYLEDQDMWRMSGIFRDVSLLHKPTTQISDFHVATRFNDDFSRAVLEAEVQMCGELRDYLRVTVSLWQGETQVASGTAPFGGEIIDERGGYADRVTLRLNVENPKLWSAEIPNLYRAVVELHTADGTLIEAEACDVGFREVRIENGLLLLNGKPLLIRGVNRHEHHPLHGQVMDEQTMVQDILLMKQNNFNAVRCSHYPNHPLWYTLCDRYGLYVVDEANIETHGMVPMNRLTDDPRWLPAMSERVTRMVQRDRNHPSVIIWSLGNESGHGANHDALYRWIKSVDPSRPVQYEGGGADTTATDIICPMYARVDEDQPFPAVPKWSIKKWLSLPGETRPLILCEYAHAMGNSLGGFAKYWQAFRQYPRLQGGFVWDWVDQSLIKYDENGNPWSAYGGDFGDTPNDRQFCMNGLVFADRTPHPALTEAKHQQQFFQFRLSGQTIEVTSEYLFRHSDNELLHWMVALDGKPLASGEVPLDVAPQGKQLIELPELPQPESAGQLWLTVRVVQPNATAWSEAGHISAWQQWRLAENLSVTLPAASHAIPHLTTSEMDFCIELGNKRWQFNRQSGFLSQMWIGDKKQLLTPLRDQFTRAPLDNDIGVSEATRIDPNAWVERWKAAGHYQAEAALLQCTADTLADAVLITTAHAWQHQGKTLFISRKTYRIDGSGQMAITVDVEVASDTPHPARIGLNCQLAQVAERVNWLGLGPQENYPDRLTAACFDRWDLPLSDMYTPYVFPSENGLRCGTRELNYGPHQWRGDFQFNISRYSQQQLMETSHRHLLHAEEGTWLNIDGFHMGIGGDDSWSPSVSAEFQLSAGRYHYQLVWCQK

[6] = tested on: BJ; test: cells; assay type: functional, cell-based; settings: Homo sapiens
[7] = tested on: BJ; test: BJ-TERT fibroblast viability loss – cell-based, RAS-independent, luminescence, dose response (AID 1933); assay type: functional; settings: Homo sapiens
[8] = blockers of HIV-1 envelope-mediated cell-cell fusion – cherry-pick, dose response (AID 652057); assay type: functional, cell-based
[9] = viability loss in CEM21 cells – cell-based, CellTiter-Glo luminescence, cherry-picked, cytotoxicity control for viral fusion inhibitor project, dose response (AID 652042); assay type: functional;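 note: potency for signal decrease meaning cytotoxicity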
[10] = off-target signal loss in HeLa-CEM21 co-culture – HeLa F-luc CTL cells, cherry-picked, counter-screen for HIV-1 Env fusion inhibitor project, dose response (AID 652040); assay type: functional, cell-based;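 note: potency for signal decrease marking cytotoxic or nonspecific inhibition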
[11] = tested on: BJ; test: growth inhibition of engineered Ras-driven BJ cells – cell-based, alamar blue fluorescence, cherrypicked samples, dose response (AID 2631); assay type: functional; settings: Homo sapiens;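 note: confirmatory dose-response assay in RAS-dependent BJ fibroblasts engineered with TERT, LT and ST, with cytotoxicity read by fluorescence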
[12] = DRD fibroblast viability loss – cell-based, non-viral oncogenic, luminescence, dose response (AID 1934); assay type: functional; settings: Homo sapiens
[13] = HIV-1 AD8 envelope cell-cell fusion blockers – cherry-pick, dose response (AID 652062); assay type: functional, cell-based;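 note: luciferase signal from cell-cell fusion driven by HIV-1 clade B AD8 Env; potency is for inhibitors of fusion seen as a drop in luminescence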
[14] = tested on: BJ; test: BJ-TERT-LT-ST fibroblast viability loss – cell-based, RAS-independent, luminescence, dose response (AID 1935); assay type: functional; settings: Homo sapiens;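 note: BJ fibroblasts immortalized with TERT plus LT and ST oncogenes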
[15] = target: T2, Protein RecA (Mycobacterium tuberculosis, UniProt P9WHJ3); test: Fluorescence Cell-Free Homogeneous Dose Retest to Identify Inhibitors of RecA-Intein Splicing Activity. [Related pubchem assays (depositor defined):AID2097, AID2223, AID489010, AID492950]; assay type: functional
T2 sequence (P9WHJ3 whole entry): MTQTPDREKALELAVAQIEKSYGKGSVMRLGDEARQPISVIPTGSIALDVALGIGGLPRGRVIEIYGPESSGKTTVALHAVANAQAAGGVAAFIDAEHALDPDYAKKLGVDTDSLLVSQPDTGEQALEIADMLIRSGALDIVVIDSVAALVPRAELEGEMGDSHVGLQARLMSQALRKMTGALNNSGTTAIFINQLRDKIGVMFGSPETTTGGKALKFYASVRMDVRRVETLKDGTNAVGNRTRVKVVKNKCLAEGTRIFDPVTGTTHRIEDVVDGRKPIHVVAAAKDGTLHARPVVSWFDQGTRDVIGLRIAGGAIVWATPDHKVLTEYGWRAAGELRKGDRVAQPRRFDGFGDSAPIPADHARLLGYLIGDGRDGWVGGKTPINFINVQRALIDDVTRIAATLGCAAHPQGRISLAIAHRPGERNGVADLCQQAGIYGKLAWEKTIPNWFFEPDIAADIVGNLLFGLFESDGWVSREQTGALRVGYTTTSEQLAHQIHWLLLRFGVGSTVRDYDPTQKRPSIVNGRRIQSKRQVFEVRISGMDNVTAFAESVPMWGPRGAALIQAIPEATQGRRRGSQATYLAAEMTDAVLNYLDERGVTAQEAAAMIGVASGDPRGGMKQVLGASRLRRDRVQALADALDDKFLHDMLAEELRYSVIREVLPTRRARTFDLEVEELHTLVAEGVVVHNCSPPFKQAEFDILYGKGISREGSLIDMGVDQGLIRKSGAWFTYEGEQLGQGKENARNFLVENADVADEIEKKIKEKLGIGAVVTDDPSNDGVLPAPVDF

[16] = blockers of HIV-1 ZM109 envelope-driven cell-cell fusion – HeLa effector, CEM target cells, luciferase, cherry-pick, dose response (AID 652058); assay type: functional, cell-based;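 note: luciferase signal from HIV-1 Env mediated cell-cell fusion of effector and target cells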
[17] = viability of uninfected HEp-2 cells – cell-based, HTS, cytotoxicity control for RSV inhibitor project, dose response (AID 2410); assay type: functional; settings: human respiratory syncytial virus
[18] = target: T3, Replicative DNA helicase DnaB (Mycobacterium tuberculosis, UniProt P9WMR3); test: DnaB intein splicing inhibitors, dose response, biochemical, cell-free fluorescence (AID 449749); assay type: functional
T3 sequence (P9WMR3 whole entry): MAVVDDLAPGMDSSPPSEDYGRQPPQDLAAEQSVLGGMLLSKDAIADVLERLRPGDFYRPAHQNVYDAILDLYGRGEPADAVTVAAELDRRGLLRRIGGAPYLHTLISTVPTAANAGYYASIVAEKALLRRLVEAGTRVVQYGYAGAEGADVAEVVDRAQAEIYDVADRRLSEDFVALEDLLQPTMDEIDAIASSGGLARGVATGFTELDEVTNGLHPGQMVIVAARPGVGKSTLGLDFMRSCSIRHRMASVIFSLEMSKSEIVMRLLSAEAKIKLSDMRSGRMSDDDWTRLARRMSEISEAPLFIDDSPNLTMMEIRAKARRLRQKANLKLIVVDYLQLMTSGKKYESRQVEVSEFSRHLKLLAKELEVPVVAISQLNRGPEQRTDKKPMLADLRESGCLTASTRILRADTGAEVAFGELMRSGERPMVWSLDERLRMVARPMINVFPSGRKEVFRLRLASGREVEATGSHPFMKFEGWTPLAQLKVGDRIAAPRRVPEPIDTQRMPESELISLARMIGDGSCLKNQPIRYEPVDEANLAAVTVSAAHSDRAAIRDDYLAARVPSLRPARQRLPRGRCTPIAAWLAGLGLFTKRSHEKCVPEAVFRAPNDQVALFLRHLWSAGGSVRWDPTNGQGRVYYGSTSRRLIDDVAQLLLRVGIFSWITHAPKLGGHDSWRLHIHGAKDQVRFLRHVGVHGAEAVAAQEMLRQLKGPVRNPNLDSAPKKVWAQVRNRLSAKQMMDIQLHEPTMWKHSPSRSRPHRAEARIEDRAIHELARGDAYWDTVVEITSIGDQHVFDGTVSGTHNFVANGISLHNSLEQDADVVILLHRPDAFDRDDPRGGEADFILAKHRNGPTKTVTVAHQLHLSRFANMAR

[19] = target: T4, Mannose-6-phosphate isomerase (Homo sapiens, UniProt P34949); test: MPI inhibition at elevated mannose 6-phosphate – biochemical, fluorescence intensity, high mannose 6-phosphate, primary screen (AID 1220)
T4 sequence (P34949 whole entry): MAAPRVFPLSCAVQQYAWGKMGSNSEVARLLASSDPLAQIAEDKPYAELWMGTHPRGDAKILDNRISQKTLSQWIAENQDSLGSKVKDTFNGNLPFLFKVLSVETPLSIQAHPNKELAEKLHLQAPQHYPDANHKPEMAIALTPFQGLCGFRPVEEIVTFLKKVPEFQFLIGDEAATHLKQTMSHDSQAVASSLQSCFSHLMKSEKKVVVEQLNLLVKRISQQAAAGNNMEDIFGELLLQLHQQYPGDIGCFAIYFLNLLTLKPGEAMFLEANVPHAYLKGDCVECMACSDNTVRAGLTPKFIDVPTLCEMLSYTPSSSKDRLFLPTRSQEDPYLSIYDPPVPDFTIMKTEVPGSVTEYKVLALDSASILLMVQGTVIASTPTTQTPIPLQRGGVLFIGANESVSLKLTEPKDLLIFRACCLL

[20] = target: T5, Caspase-6 (Homo sapiens, UniProt P55212); test: inhibition of CASP6 peptide cleavage – biochemical, VEID-R110 fluorescence, cherry-pick, dose response (AID 720632)
T5 sequence (P55212 whole entry): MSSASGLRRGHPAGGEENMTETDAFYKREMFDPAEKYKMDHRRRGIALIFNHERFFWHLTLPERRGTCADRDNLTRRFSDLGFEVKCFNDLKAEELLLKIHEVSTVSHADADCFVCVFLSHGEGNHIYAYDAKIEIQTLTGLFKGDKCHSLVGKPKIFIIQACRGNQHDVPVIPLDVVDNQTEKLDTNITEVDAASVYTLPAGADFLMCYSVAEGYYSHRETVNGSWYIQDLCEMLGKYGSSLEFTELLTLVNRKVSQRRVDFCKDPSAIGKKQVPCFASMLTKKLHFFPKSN

In the case of `Cc1cccc2c(N=Nc3ccccc3)c(O)[nH]c12`, the EC50 [1] is reported as > 67.5 µM (inactive), the EC50 [2] is reported as > 67.5 µM (inactive) and the IC50 [3] is reported as > 67.5 µM (inactive). For the same compound, the EC50 [4] was > 67.5 µM (inactive).
In the case of `O=C(/C=C/c1ccc(Cl)cc1)N1CCN(c2ccccc2[N+](=O)[O-])CC1`, the IC50 [5] is reported as > 80 µM (inactive).
With `COc1ccc2nc(O)c(CN(Cc3cccs3)S(=O)(=O)c3cccc4nsnc34)cc2c1` the EC50 [6] was 25.6 µM (inconclusive), the EC50 [7] was 21.1 µM (active) and the AC50 [8] was 4.12 µM (active). The AC50 [9] was 38.4 µM (active), the AC50 [10] was 16.9 µM (active) and the EC50 [11] was 1.62 µM (active). The EC50 [12] was 14.5 µM (active), the AC50 [13] was 3.31 µM (active) and the EC50 [14] was > 150 µM (not active).
For `Oc1nnc(Sc2ncnc3sccc23)n1CCc1ccccc1`, the EC50 [15] was 18 µM (active), the AC50 [8] was 7.58 µM (active) and the AC50 [9] was 27 µM (active). For the same compound, the AC50 [16] was 16.6 µM (active), the CC50 [17] was 14.9 µM (active) and the AC50 [10] was 17.3 µM (active). For the same compound, the AC50 [18] was > 380 µM (inactive) and the AC50 [13] was 18.1 µM (active).
For `CCC1(CC)Cc2ccccc2C2=C(C(=O)N3CCCCC3)C(=O)C(=O)N21`, the IC50 [19] was > 50 µM (not active).
In the case of `CC1CCCCC1NC(=O)COC(=O)c1ccc([N+](=O)[O-])o1` (stereo unspecified), the AC50 [20] is reported as 43.8 µM (active).
In the case of `Fc1ccccc1-c1nc(-c2ccccc2)no1`, the EC50 [1] is reported as > 67.5 µM (inactive) and the EC50 [2] is reported as > 67.5 µM (inactive).
